Holding throughout (experiment): Minimum growth inhibitory concentration, method of the Japan Society of Chemotherapy
Common to all, as to format: cell-based

In one assay the test system is Streptococcus pneumoniae. The note with it: bacteria D: Streptococcus pneumoniae; bacteria ×10⁶/ml. From the text: (§1) The results are shown in Table 1. • (A) : Staphylococcus aureus SR3131 • (B) : Staphylococcus aureus SR3637 • (C) : Staphylococcus aureus SR57690FLX-R* • (D) : Streptococcus pneumoniae • (E) : Streptococcus faecalis SR58180FLX-R* • (F) : Escherichia coli EC-7437 • (G) : Escherichia coli SR5038 OFLX-R* * : ofloxacin resistant bacteria

Assay [1] has as its system Staphylococcus aureus SR3637. The note with it: bacteria B: Staphylococcus aureus SR3637; bacteria ×10⁶/ml.
From the text: as §1

Assay [2] concerns Staphylococcus aureus SR3131. The note with it: bacteria A: Staphylococcus aureus SR3131; bacteria ×10⁶/ml.
From the text: as §1

Assay [3] deals with Streptococcus faecalis SR58180FLX-R. The note with it: Enterococcus faecalis, SR58180FLXR, read-out: Minimum Inhibitory Concentration.
From the text: as §1

The subject of the next assay is Escherichia coli EC-7437. The note with it: EC7437; bacteria F: Escherichia coli EC-7437; bacteria ×10⁶/ml.
From the text: as §1

Assay [4] has as its system Escherichia coli SR5038 OFLX-R. The note with it: SR5038OFLXR, read-out: Minimum Inhibitory Concentration.
From the text: as §1

The subject of assay [5] is Staphylococcus aureus SR57690FLX-R. The note with it: SR57690FLXR, read-out: Minimum Inhibitory Concentration.
From the text: as §1

Molecules are shown by their SMILES. In brackets after ≈: the same amount, converted by molar mass. Read-outs that look alike come from different tables or passages of the source. A value given as a limit tells only on which side of the number the result lay.

For the compound `C=C1CN(c2c(F)cc3c(=O)c(C(=O)O)cn(C4CC4)c3c2F)CC1NC` (racemic) [Racemate of the compound 1], the MIC worked out at 0.4 µg/mL (≈ 1.07 µM) with Streptococcus pneumoniae; 0.1 µg/mL (≈ 0.266 µM) in assay [1]; 0.1 µg/mL (≈ 0.266 µM) in assay [2]; 12.5 µg/mL (≈ 33.3 µM) in assay [3]; 0.006 µg/mL (≈ 0.016 µM) in the assay on Escherichia coli EC-7437; 12.5 µg/mL (≈ 33.3 µM) in assay [4] (Escherichia coli). Moreover, the MIC in assay [5] was determined as 6.3 µg/mL (≈ 16.8 µM).
For the compound `C=C1CN(c2c(F)cc3c(=O)c(C(=O)O)cn(C4CC4)c3c2F)C[C@H]1NC` [Compound 1, 7-((-)-(S)-3-Methylamino-4-methylenepyrrolidine)-1-cyclopropyl-6,8-difluoro-1,4-dihydro-4-oxo-3-quinolinecarboxylic acid], the MIC against Streptococcus pneumoniae is 0.2 µg/mL (≈ 0.533 µM); in assay [1], 0.05 µg/mL (≈ 0.133 µM); in assay [2] it was 0.05 µg/mL (≈ 0.133 µM); in assay [3] it was 6.3 µg/mL (≈ 16.8 µM); with Escherichia coli EC-7437 it was less than 0.003 µg/mL; in assay [4] (Escherichia coli) it was 12.5 µg/mL (≈ 33.3 µM). Besides, the MIC in assay [5] amounted to 6.3 µg/mL (≈ 16.8 µM).
Regarding `CC1COc2c(N3CCN(C)CC3)c(F)cc3c(=O)c(C(=O)O)cn1c23` (stereo not drawn) [Ofloxacin], the MIC against Streptococcus pneumoniae was 1.6 µg/mL (≈ 4.43 µM); in assay [1], 0.4 µg/mL (≈ 1.11 µM); in assay [2], 0.4 µg/mL (≈ 1.11 µM); in assay [3], 100 µg/mL (≈ 277 µM); with Escherichia coli EC-7437, less than 0.02 µg/mL; in assay [4] (bacteria G: Escherichia coli SR5038 OFLX-R, ofloxacin resistant, bacteria ×10⁶/ml), 50 µg/mL (≈ 138 µM). Moreover, the MIC in assay [5] was 50 µg/mL (≈ 138 µM).
